In brackets after ≈: the same amount, converted by molar mass. Where a name gives a salt, the structure may show the parent alone. Read-outs that look alike come from different tables or passages of the source.
Experiments:
[1] = Solubility in a physiologically acceptable buffer (sodium phosphate buffer, pH 7.4); format: physicochemical; settings: sodium phosphate buffer at pH 7.4
Source text: The corresponding solubility of the parent compound is about 20 microgram.

[2] = molecular target: T1, alkaline phosphatase (Bos taurus, UniProt P19111); assay: Dephosphorylation by alkaline phosphatase in vitro; format: in vitro ADME; settings: bovine, bovine alkaline phosphatase (type VII S, Sigma-Aldrich); phosphatase concentration of 10 units/ml, 37° C., pH 7.4; read-out: half-life time of dephosphorylation
T1 construct: purchased Sigma-Aldrich type VII S
T1 sequence (P19111 20-506 limits assumed): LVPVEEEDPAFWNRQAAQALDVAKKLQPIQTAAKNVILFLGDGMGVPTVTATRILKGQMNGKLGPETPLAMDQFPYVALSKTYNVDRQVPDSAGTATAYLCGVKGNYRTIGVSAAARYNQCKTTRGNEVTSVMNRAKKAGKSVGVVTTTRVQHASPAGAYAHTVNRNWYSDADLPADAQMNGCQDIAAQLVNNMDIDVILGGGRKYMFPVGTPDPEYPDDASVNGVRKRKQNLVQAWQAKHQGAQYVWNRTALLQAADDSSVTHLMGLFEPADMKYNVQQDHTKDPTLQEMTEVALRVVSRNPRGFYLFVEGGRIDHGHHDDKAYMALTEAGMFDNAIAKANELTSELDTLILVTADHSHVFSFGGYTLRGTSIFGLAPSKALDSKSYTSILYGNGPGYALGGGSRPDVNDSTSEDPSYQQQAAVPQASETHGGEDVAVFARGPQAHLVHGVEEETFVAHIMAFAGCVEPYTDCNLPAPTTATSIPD
Source text: The ability of bovine alkaline phosphatase (type VII S, Sigma-Aldrich) to dephosphorylate the title compound was investigated in vitro. […] Intravenous administration of the title compound is consequently expected to result in a rapid formation of the active moiety (1R)-1-(3,4,5-trimethoxyphenyl)-2-formyl-5-hydroxy-6-methoxy-1,2,3,4-tetrahydroisoquinoline (see FIG. 1).

[3] = system: phospho-AKT in DU-145 cells; assay: Inhibition of IGF-1 stimulated phosphorylation of AKT in DU-145 cells (immunoblotting); format: cell-based; settings: Homo sapiens, 0.25 h, incubated over night in serum free medium, IGF-1 (50 nM) stimulation 15 minutes
Method: (§1) DU-145 cells (prostate cancer) were incubated over night with the title compound in serum free medium. After stimulation for 15 minutes with IGF-1 (50 nM), the cells were lyzed and the lysates analysed by immunoblotting for phospho-MAPK and phospho-AKT.

[4] = system: phospho-MAPK (Erk1/2) in DU-145 cells; assay: Inhibition of IGF-1 stimulated phosphorylation of MAPK in DU-145 cells (immunoblotting); format: cell-based; settings: Homo sapiens
Method: as §1

Question: Which melting point does the source give for `COc1cc([C@@H]2c3ccc(OC)c(OP(=O)(O)O)c3CCN2C=O)cc(OC)c1OC` (as salt: phosphate) [(1R)-1-(3,4,5-trimethoxyphenyl)-2-formyl-5-(dihydrogen phosphate)-6-methoxy-1,2,3,4-tetrahydroisoquinoline] here?
Answer: 138 to 141 °C

Question: With `COc1cc([C@@H]2c3ccc(OC)c(OP(=O)(O)O)c3CCN2C=O)cc(OC)c1OC` [(1R)-1-(3,4,5-trimethoxyphenyl)-2-formyl-5-(dihydrogen phosphate)-6-methoxy-1,2,3,4-tetrahydroisoquinoline] as the molecule, how does the solubility ([1]; aqueous buffer, read-out: solubility) read?
Answer: > 50000 µg/mL

Question: And the half-life [2]?
Answer: 8 min

Question: Which solubility ([1]; aqueous buffer, parent compound, read-out: solubility) does the source give for `COc1ccc2c(c1O)CCN(C=O)[C@@H]2c1cc(OC)c(OC)c(OC)c1` [(1R)-1-(3,4,5-trimethoxyphenyl)-2-formyl-5-hydroxy-6-methoxy-1,2,3,4-tetrahydroisoquinoline] here?
Answer: ~20 µg/mL (≈ 53.6 µM)

Question: What about the solubility ([1]; parent compound) of the same molecule?
Answer: about 20 microgram

Question: What about the IC50 [3] of the same molecule?
Answer: 40 nM

Question: And the IC50 ([4]; 0.25 h, incubated over night in serum free medium, IGF-1 (50 nM) stimulation 15 minutes, read-out: IC50 inhibition of phosphorylation of MAPK (Erk1/2))?
Answer: 50 nM

Question: What about the melting point of the same molecule?
Answer: 190 to 192 °C

Question: For `COc1cc([C@@H]2c3cc4c(cc3[C@H](O)[C@H]3COC(=O)[C@@H]23)OCO4)cc(OC)c1OC` [Picropodophyllin, reference compound], which IC50 ([4]; standard, read-out: IC50 inhibition of phospho-MAPK (Erk1/2)) is on record?
Answer: ~5000 nM

— patent US20090099133A1, “Isoquinolines Derivatives as Igf-1R Inhibitors” (priority 2005, published 2009)
